According to paper PMC7914648 (Pharmaceuticals, 2021):

What was measured:
[1] = test system: cultured glioma and glioblastoma cell lines; settings: cited from earlier work
Excerpt: (§1) In turn, this difficulty may be due at least in part precisely to the TPP group, since the parent compound, PAP-1, is effective against various Central Nervous System (CNS) disorders. This difficulty is not surprising if one compares the characteristics of ...

[2] = test system: orthotopic glioma; settings: orthotopic murine model; cited from earlier work
Excerpt: as §1

[3] = Aqueous solubility determination; type: physicochemical; settings: kinetic, 25 mM DMSO stock diluted to 100 μM (DMSO < 0.4%), supernatant HPLC/UV
Description: For TAT-PAPTP and An2-PAPTP, three distinct suspensions were prepared by diluting 25 mM stock solutions in DMSO to 100 μM, in 0.9% NaCl saline or water (DMSO < 0.4%). The suspensions were sonicated 5 min and immediately analyzed. The suspensions were then centrifuged at 12,000× g, 18 °C, for 1 and 2 h, and the supernatants were analyzed by HPLC/UV at the end of each centrifugation. An additional analysis was performed after 24 h of standing. The chromatographic peak areas were used to determine the concentration of the compound in the supernatants, based on calibration curves built using solutions in DMSO.

[4] = Stability in blood (hydrolysis, PAPTPL release); type: in vitro ADME; settings: fresh heparinized C57BL mouse blood, 37 °C, 5 µM from 5 mM DMSO stock, HPLC-UV, % PAPTPL released relative to amount spiked, mean, n = 5 (An2-PAPTP) and 4 (TAT-PAPTP)
Description: C57BL mice were anesthetized and blood was withdrawn from the jugular vein and heparinized. Blood samples (1 mL) were spiked with compound (5 µM; dilution from a 5 mM stock solution in DMSO) and incubated at 37 °C for 4 h (the maximum period allowed by blood stability). Aliquots were taken after 10 min, 30 min, 1 h, 2 h, and 4 h before HPLC-UV analysis.
Each aliquot was treated as described above (Section 4.7.1). Compound stability in blood was expressed as % of PAPTPL released relative to the amount of An2-PAPTP and TAT-PAPTP spiked in the sample at time 0.

[5] = type: in vivo, mouse; settings: TAT-PAPTP 5 µmoles/kg bw i.v. tail vein in mouse plasma, 2 C57BL mice sacrificed within 15 min; PAPTPL extracted after hydrolysis at pH 12.5, HPLC
Description: The brains of these mice were analyzed to evaluate the presence of the construct in the tissue (see Section 4.7). Each brain was homogenized and incubated with an equal volume of phosphate-buffered saline (PBS, pH 12.5) for 24 h; 10 volumes of ethyl acetate were then added. After vigorous mixing, the organic phase was collected, concentrated and analyzed via HPLC. This procedure allows hydrolysis of the carbamate bond, leading to the extraction of PAPTPL, which is considered proportional to the amount of peptide-PAPTP conjugate (or its fragments) present in the brain.
The protocol set up for PAPTPL recovery turned out to be inefficient for the quantification of TAT-PAPTP. An alternative protocol was thus developed. Tissue obtained from untreated mice was weighed and homogenized with PBS pH 7.4 (1 vol) with a potter. The pre-established amount of analyte was added into tissue homogenates and, after thorough vortexing, 1 vol of PBS pH 12.5 was added and the sample was incubated with intermittent vortexing at 60 °C for 24 h. This step is required to allow the hydrolysis of the carbamate bond connecting the peptide and PAPTPL. 10 vol of ethyl acetate were added and, after vortexing and sonication for 2 min, the sample was centrifuged at 12,000× g, 7 min, Room Temperature. The organic phase was collected and concentrated with Hetovac VR-1. ACN was added to the concentrated sample to allow the resuspension of PAPTPL and analyzed via HPLC. Quantification was as described for PAPTPL.
(§2) Brain and liver obtained from untreated mice were weighed and homogenized with PBS pH 7.4 (1 vol) with a potter. The pre-established amount of analyte was added into tissue homogenates and, after thorough vortexing, 5 vol of acetone were added and the sample was sonicated for 2 min. Subsequently, 5 vol of ACN containing 0.1% trifluoracetic acid (TFA) were added and the sample was sonicated for 5 min. The sample was then centrifuged at 12,000× g for 7 min at 4 °C and the supernatant was collected, concentrated with a Hetovac VR-1, and analyzed via HPLC-UV.
(§3) To quantify the amount of An2-PAPTP stuck in the tissue, the pellet remaining after the procedure described above was incubated with intermittent Vortexing at 60 °C for 3 h with PBS pH 12.5/ACN 1:1 and then centrifuged at 12,000× g for 7 min. HPLC-UV analysis of the supernatant, measuring PAPTPL hydrolyzed from the tissue, thus indirectly reflects the amount of An2-PAPTPL in the pellet (Scheme 3). Quantification was as described for PAPTPL.
(§4) A stock solution of the peptide-PAPTP conjugates was prepared in DMSO. TAT-PAPTP was administered at 8 and 5 μmol/kg bw and An2-PAPTP only at 5 μmol/kg bw. The calculated quantity of drugs was diluted from the stock solution in saline or mouse plasma to a final volume of 200 μL.

[6] = test system: C57BL mice; assay: Observed toxicity after tail vein injection; type: in vivo; settings: 5 µmoles/kg bw by tail vein injection in mouse plasma, no proper toxicological study
Description: TAT-PAPTP (5 µmoles/kg bw) was administered by tail vein injection to 2 C57BL mice. […] The observed toxicity was not due to the use of plasma, since mice were not made ill by the administration of PAPTP or An2-PAPTP in the same vehicle (see below, Section 2.7).
as §4

[7] = test system: mouse Red Blood Cells; assay: Haemolysis assay; type: cell-based; settings: 5 × 10^7 mouse erythrocytes in 1 mL PBS pH 7.4, 2, 1 or 0.5 µM, 15 min, absorbance 540 nm, n = 3
Description: Haemolysis studies were conducted as described in [72]. Briefly, freshly withdrawn blood samples were centrifuged at 1000× g for 10 min to obtain erythrocytes; the pellet was then washed thrice with sterile PBS (pH 7.4). Erythrocytes (5 × 10^7 cells in 1 mL of PBS for each experimental condition) were incubated with 2, 1 or 0.5 µM An2-PAPTP or TAT-PAPTP for 15 min. The samples were then centrifuged and absorbance (Abs) of the supernatant was measured at 540 nm. Triton X-100 1% and PBS were used as positive and negative control, respectively.
The percentage of haemolysis was calculated with the following equation:% haemolysis = [(Abssample − AbsPBS)/AbsTriton X-100 − AbsPBS)] × 100

[8] = test system: SHSY-5Y cells; assay: MTS cell viability assay; type: cell-based
Description: SHSY-5Y cells (kindly provided by I. Szabò) were grown in Dulbecco’s Modified Eagle Medium (DMEM, Aurogene) supplemented with 10% (v/v) fetal bovine serum (FBS), 100 U/mL penicillin G, 0.1 mg/mL streptomycin and 5% glutamine.
SHSY-5Y cells were seeded (10,000 cells/well) in standard 96-well plates in DMEM (200 µL). After 24 h, the growth medium was replaced with a medium containing PAPTP and PAPTPL (from a stock solution in DMSO) at the desired final concentrations (20, 10 and 3 μM). DMEM without additions (CONTROL in Figure 2) was used as negative control. The final concentration of DMSO was 0.1% or lower in all cases (including control). After incubation for 24 h, 20 µL of CellTiter 96 AQUEOUS One solution (Promega, Italy) were added to each well and the plate was incubated at 37 °C in a humidified, 5% CO2 atmosphere for 4 h. Absorbance was measured at 490 nm to detect formazan formation.

[9] = Tissue distribution of An2-PAPTP and metabolites (liver, spleen, kidneys, heart) after i.v. injection; type: in vivo, mouse; settings: mean ± SEM; for metabolite in liver, 15 min: n = 5; for metabolite in heart, 15 min / metabolite in kidneys, 15 min / metabolite in spleen, 15 min: N = 5
Excerpt: The total amount of An2-PAPTP and its metabolites, summarized in Table 3, is comprehensive of all the species having the characteristic psoralenic UV spectrum obtained by the overall extraction procedure (i.e., from organic solvent extraction and basic hydrolysis of the remaining pellet), and represents and underestimation of the real concentration in the tissue (see Section 4.7.3). This is because no recovery yield correction was applied, since it was impossible to identify most of the species extracted, and because PAPTPL extracted after high-pH hydrolysis of the pellet could come either from An2-PAPTP or from metabolites. For quantification in HPLC analysis, all the psoralenic species were assumed to have the same molar extinction coefficient as PAPTPL, an assumption justified by the near-identity observed for all the available psoralen-containing molecules.
as §2, with “The liver, spleen, kidneys, heart” for “Brain and liver”, “PAPTPL” for “analyte”, “homogenates or blood” for “homogenates”, “TFA” for “trifluoracetic acid (TFA)”
as §2, §3, §4

[10] = Preliminary brain levels after intraperitoneal An2-PAPTP; type: in vivo, mouse; settings: An2-PAPTP 5 µmol/kg bw i.p. in DMSO; sacrifice at 20 min or 1, 2, 4 h; four mice
Description: In preliminary tests An2-PAPTP was administered at 5 µmol/kg bw by the intraperitoneal (i.p.) route, using dimethylsulfoxide (DMSO) as the vehicle. […] Many brain-penetrating peptides bind to biomolecules such as proteins and cell structures such as membranes. Furthermore, the absence of a flowing bloodstream at the injection site may cause a poorly soluble molecule to remain confined in the vicinity of the point of delivery. […] Collectively, these preliminary results led to the adoption of the intravenous route. An2-PAPTP (5 µmoles/kg bw, in plasma) was thus administered by tail vein injection to mice.

[11] = after An2-PAPTP 5 µmoles/kg bw i.v.

Question: For `O=C(NCCC[P+](c1ccccc1)(c1ccccc1)c1ccccc1)Oc1ccc(OCCCCOc2c3ccoc3cc3oc(=O)ccc23)cc1.[I-]` [PCARBTP, (3-(((4-(4-((7-oxo-7H-furo[3,2-g]chromen-4-yl)oxy)butoxy)phenoxy)carbonyl)amino)propyl)triphenylphosphonium iodide], which “killing of cultured glioma and glioblastoma cell lines” value [1] is on record?
Answer: efficiently killed

Question: What about the “effect on tumor growth” value [2] of the same compound?
Answer: did not affect tumor growth

Question: For `CC[C@H](C)[C@H](NC(=O)Oc1ccc(CCCOc2ccc([P+](CCCc3ccc(OCCCCOc4c5ccoc5cc5oc(=O)ccc45)cc3)(c3ccccc3)c3ccccc3)cc2)cc1)C(=O)NCC(=O)N[C@@H](CCCNC(=N)N)C(=O)N[C@@H](CCCCN)C(=O)N[C@@H](CCCCN)C(=O)N[C@@H](CCCNC(=N)N)C(=O)N[C@@H](CCCNC(=N)N)C(=O)N[C@@H](CCC(N)=O)C(=O)N[C@@H](CCCNC(=N)N)C(=O)N[C@@H](CCCNC(=N)N)C(=O)N[C@@H](CCCNC(=N)N)C(=O)N1CCC[C@H]1C(=O)N1CCC[C@H]1C(=O)N[C@@H](CCC(N)=O)C(=O)NCC(=O)O` [TAT-PAPTP], which “solubility in 0.9% NaCl saline” value ([3]; 0.9% NaCl saline, sonicated 5 min, centrifuged 12,000 × g 18 °C 1 and 2 h, detection limit 0.1 µM) is on record?
Answer: > 100 µM

Question: And the solubility in water ([3]; water, sonicated, centrifuged 12,000 × g 18 °C)?
Answer: > 100 µM

Question: And the “hydrolyzed in mouse blood over 4 h (PAPTPL released)” value [4]?
Answer: more stable

Question: And the “construct level in brain” value [5]?
Answer: 0.2–0.3 nmoles/g fresh tissue

Question: And the “observed toxicity in mice” value [6]?
Answer: evident signs of illness (respiratory difficulties, trailing limbs, swelling of the paws)

Question: And the “observed toxicity in mice” value ([6]; listed as TAT-PAPT)?
Answer: more toxic than its individual components (TAT and PAPTP) as well as than An2-PAPTP

Question: What about the “haemolysis (release of haemoglobin)” value [7] of the same compound?
Answer: did

Question: Which results are given for `O=C([O-])C(F)(F)F.O=c1ccc2c(OCCCCOc3ccc(CCC[P+](c4ccccc4)(c4ccccc4)c4ccc(OCCCc5ccc(O)cc5)cc4)cc3)c3ccoc3cc2o1` [PAPTPL, (4-(3-(4-hydroxyphenyl)propoxy)phenyl)(3-(4-(4-((7-oxo-7H-furo[3,2-g]chromen-4-yl)oxy)butoxy)phenyl)propyl)diphenylphosphonium 2,2,2-trifluoroacetate]?
Answer: difference in cytotoxic effect versus PAPTP ([8]; 24 h, MTS, one-way ANOVA): no statistically significant difference; cytotoxic effect (cell viability, MTS reduction assay) ([8]; 24 h treatment, 20, 10 and 3 μM, absorbance 490 nm, n = 3): marked cytotoxicity; metabolite in liver, 15 min ([9]; after An2-PAPTP 5 µmoles/kg bw i.v. in mouse plasma, HPLC-UV): 1.5 ± 0.6 nmol/g fresh tissue; metabolite in heart, 15 min [9, 11]: 0.12 ± 0.06 nmol/g fresh tissue; metabolite in kidneys, 15 min [9, 11]: 0.7 ± 0.1 nmol/g fresh tissue; metabolite in liver, 15 min [9, 11]: 1.2 ± 0.5 % administered dose; metabolite in spleen, 15 min [9, 11]: 0.9 ± 0.2 nmol/g fresh tissue; metabolite in heart, 15 min ([9]; after An2-PAPTP i.v.): 0.013 ± 0.007 % administered dose; metabolite in kidneys, 15 min ([9]; after An2-PAPTP i.v.): 0.1 ± 0.1 % administered dose; metabolite in spleen, 15 min ([9]; after An2-PAPTP i.v.): 0.05 ± 0.02 % administered dose; detection in brain after i.p. administration [10]: no An2-PAPTP or PAPTPL could be detected
